Results reported in patent US20210236438A1, “COMPOUNDS AND METHODS FOR THE TREATMENT OF AUTISM SPECTRUM DISORDER AND OTHER NEUROLOGICAL OR PSYCHIATRIC DISORDERS” (Tufts Medical Center, Inc., priority 2018, published 2021).
Entries after “also recorded” stand apart in the source; their conditions may differ.

Columns and labels:
[1] = ip or oral administration; U.S. Pat. No. 3,995,061; cited from earlier work
[2] = test system: glucose transporter 1 (GLUT-1); settings: Jeong et al. 2011; cited from earlier work
[3] = test system: vascular endothelial growth factor (VEGF); settings: Jeong et al. 2011; cited from earlier work
[4] = U.S. Pat. No. 3,995,061; cited from earlier work
[5] = test system: hnRNP L; settings: Kang et al. 2006, cited from earlier work
[6] = test system: BIN1; settings: human osteosarcoma cells (U2OS), proteome analysis, Kang et al. 2006; cited from earlier work
[7] = test system: hnRNP L; assay: Western blot of hnRNP L level in ascochlorin-treated cultured rat primary cortical neurons; format: cell-based; settings: rat embryonic/primary cortical neurons, hnRNP L 60 KDa
Text: (§1) Compounds that modify hnRNP L levels therefore hold promise as lead structures for the development of ASD/mental retardation/neurological disorders.

[8] = test system: GADPH; assay: Western blot of control protein level in ascochlorin-treated rat embryonic cortical neurons; format: cell-based
Text: as §1

Row | Structure (SMILES) | toxicity as assessed by LD50 [1] | expression of GLUT-1 [2] | expression of VEGF [3] | tolerability in clinical trials [4] | hnRNP L protein levels in vitro (in words) ([5]; U2OS osteosarcoma cells) | increase in hnRNP L protein level ([5]; human osteosarcoma cells (U2OS), proteome analysis) | increase in BIN1 protein level [6] | level of hnRNP L [7] | level of the control protein (GADPH 40 KDa) [8]
1 | CCOc1c(Cl)c(C)c(C=O)c(O)c1C/C=C(C)/C=C/C1(C)C(C)CCC(=O)C1C (stereo not shown) [4-O-ethyl-ascochlorin] | low toxicity | – | – | – | – | – | – | – | –
2 | COc1c(Cl)c(C)c(C=O)c(O)c1C/C=C(C)/C=C/[C@@]1(C)[C@H](C)CCC(=O)[C@@H]1C [MAC, 4-O-methylascochlorin] | low toxicity | increases the expression | increases the expression | well tolerated | – | – | – | – | –
3 | CC(/C=C/[C@@]1(C)[C@H](C)CCC(=O)[C@@H]1C)=C\Cc1c(O)c(Cl)c(C)c(C=O)c1O [ascochlorin] | – | – | – | – | increase hnRNP L protein levels in vitro | 12 × | 10 × | increases the level of hnRNP L; also recorded: increase hnRNP L levels in neurons; also recorded: increased levels of hnRNP L | does not affect the level of the control protein
